Experimental data taken from ChEMBL document CHEMBL4837249, “Discovery of Potent Antiallergic Agents Based on an o-Aminopyridinyl Alkynyl Scaffold” (J Med Chem, 2021).

Assays:
[1] = biological target: Tyrosine-protein kinase ABL1 (Homo sapiens, UniProt P00519); test: Inhibition of human recombinant ABL1 using ATP/Ulight-TK peptide at 5 nM incubated for 15 mins relative to control
[2] = biological target: Tyrosine-protein kinase Fgr (Homo sapiens, UniProt P09769); test: Inhibition of human recombinant FGR (456 to 770) at 5 nM by radiometric scintillation counting analysis relative to control
[3] = biological target: Tyrosine-protein kinase HCK (Homo sapiens, UniProt P08631); test: Inhibition of human recombinant HCK (230 to 497) at 5 nM by radiometric scintillation counting analysis relative to control
[4] = biological target: Tyrosine-protein kinase Lck (Homo sapiens, UniProt P06239); test: Inhibition of human full length recombinant LCK at 5 nM by radiometric scintillation counting analysis relative to control
[5] = biological target: Tyrosine-protein kinase Lyn (Homo sapiens, UniProt P07948); test: Inhibition of human full length recombinant LYN at 5 nM by radiometric scintillation counting analysis relative to control
[6] = biological target: Protein-tyrosine kinase 6 (Homo sapiens) (UniProt Q13882); test: Inhibition of human recombinant BRK (174 to 734) at 50 nM by radiometric scintillation counting analysis relative to control
[7] = biological target: Platelet-derived growth factor receptor alpha (Homo sapiens) (UniProt P16234); test: Inhibition of human recombinant PDGFRalpha (550 to end) at 50 nM by radiometric scintillation counting analysis relative to control
[8] = biological target: Proto-oncogene tyrosine-protein kinase Src (Homo sapiens, UniProt P12931); test: Inhibition of human recombinant Src (1-530) at 50 nM by radiometric scintillation counting analysis relative to control
[9] = biological target: Tyrosine-protein kinase Blk (Homo sapiens, UniProt P51451); test: Inhibition of human full length recombinant BLK at 500 nM by radiometric scintillation counting analysis relative to control
[10] = biological target: T1, Cytoplasmic tyrosine-protein kinase BMX (Homo sapiens) (UniProt P51813); test: Inhibition of human full length recombinant Bmx at 500 nM by radiometric scintillation counting analysis relative to control
T1 sequence (whole entry): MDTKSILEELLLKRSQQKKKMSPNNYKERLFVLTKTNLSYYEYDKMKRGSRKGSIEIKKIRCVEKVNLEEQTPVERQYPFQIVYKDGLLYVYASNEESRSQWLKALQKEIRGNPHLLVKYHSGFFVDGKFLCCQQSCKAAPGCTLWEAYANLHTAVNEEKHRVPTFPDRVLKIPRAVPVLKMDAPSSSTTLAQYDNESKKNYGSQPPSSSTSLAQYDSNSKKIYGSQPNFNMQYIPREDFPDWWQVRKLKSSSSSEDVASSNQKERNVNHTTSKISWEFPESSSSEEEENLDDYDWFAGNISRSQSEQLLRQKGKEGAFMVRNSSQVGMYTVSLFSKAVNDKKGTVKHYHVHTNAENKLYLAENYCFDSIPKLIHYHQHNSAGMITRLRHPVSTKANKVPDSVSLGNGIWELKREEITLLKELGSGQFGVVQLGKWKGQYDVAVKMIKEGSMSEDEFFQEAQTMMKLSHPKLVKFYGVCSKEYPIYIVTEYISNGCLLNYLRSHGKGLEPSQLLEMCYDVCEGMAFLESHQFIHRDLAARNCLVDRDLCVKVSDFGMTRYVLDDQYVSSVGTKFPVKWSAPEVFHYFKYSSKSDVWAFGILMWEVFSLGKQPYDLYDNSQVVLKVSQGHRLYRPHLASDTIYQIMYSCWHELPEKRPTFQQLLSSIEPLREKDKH

[11] = biological target: Tyrosine-protein kinase CSK (Homo sapiens, UniProt P41240); test: Inhibition of human full length recombinant CSK at 500 nM by radiometric scintillation counting analysis relative to control
[12] = biological target: Macrophage colony-stimulating factor 1 receptor (Homo sapiens, UniProt P07333); test: Inhibition of human recombinant CSF1R using ATP/Ulight-TK peptide at 500 nM incubated for 15 mins relative to control
[13] = biological target: Tyrosine-protein kinase Fyn (Homo sapiens, UniProt P06241); test: Inhibition of human recombinant Fyn (218 to end) at 500 nM incubated for 15 mins relative to control
[14] = biological target: T2, Inhibitor of nuclear factor kappa-B kinase subunit alpha (Homo sapiens) (UniProt O15111); test: Inhibition of human full length recombinant IKKalpha at 500 nM by radiometric scintillation counting analysis relative to control
T2 sequence (whole entry): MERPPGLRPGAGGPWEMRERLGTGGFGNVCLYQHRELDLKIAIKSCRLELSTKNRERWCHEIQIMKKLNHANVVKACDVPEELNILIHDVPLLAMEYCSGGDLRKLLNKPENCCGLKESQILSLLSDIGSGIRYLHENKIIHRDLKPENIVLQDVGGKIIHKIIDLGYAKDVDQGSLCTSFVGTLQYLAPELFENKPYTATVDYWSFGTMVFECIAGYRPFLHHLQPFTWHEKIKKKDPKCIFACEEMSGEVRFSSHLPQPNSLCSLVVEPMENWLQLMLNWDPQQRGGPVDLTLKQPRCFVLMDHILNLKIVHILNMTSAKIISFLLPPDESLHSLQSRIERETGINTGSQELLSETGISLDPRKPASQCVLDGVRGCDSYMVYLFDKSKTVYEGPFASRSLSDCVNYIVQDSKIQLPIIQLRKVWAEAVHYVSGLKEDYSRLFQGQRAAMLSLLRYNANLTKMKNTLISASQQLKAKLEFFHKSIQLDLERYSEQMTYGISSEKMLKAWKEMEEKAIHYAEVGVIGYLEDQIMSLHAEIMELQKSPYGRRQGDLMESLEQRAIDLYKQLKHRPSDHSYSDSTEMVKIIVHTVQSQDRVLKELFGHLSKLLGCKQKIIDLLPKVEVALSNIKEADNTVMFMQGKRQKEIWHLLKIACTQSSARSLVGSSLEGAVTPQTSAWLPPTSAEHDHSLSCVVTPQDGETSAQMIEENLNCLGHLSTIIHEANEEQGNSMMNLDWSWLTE

[15] = biological target: Platelet-derived growth factor receptor alpha (Homo sapiens) (UniProt P16234); test: Inhibition of human recombinant PDGFRalpha (550 to end) at 500 nM by radiometric scintillation counting analysis relative to control
[16] = biological target: Tyrosine-protein kinase Srms (Homo sapiens, UniProt Q9H3Y6); test: Inhibition of human SRMS at 500 nM by radiometric scintillation counting analysis relative to control
[17] = biological target: Tyrosine-protein kinase JAK1 (Homo sapiens) (UniProt P23458); test: Inhibition of human recombinant JAK1 at 500 nM radiometric scintillation counting analysis relative to control

Chain of Tyrosine-protein kinase Blk (P51451 2-505 limits assumed): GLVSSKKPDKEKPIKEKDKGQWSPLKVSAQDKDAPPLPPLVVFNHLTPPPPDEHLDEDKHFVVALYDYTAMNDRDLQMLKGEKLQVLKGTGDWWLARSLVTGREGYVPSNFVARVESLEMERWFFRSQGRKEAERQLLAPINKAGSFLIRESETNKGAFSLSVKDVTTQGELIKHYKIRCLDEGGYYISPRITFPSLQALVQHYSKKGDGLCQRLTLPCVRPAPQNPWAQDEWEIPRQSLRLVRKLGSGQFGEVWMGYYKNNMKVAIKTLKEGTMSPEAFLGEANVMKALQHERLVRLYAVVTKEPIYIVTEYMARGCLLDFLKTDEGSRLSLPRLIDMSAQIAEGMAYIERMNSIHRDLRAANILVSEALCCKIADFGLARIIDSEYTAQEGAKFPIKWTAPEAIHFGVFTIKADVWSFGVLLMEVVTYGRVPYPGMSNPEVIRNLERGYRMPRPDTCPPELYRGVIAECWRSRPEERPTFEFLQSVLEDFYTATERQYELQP
Chain of Tyrosine-protein kinase Fyn (P06241 2-537 limits assumed): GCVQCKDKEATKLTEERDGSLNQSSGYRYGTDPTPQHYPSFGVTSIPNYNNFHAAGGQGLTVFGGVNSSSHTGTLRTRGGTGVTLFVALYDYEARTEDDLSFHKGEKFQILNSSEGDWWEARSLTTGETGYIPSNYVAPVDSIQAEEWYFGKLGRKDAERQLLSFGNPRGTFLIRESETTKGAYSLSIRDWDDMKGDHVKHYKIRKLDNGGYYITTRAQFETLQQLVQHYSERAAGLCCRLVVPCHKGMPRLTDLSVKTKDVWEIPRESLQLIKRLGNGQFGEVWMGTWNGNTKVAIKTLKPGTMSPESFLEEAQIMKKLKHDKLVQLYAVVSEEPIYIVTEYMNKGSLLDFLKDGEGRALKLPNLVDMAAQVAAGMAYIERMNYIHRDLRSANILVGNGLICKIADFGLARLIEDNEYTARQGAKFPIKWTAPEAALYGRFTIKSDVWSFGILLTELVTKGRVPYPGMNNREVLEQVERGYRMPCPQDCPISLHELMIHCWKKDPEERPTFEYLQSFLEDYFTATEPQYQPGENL
Chain of Proto-oncogene tyrosine-protein kinase Src (P12931 2-536 limits assumed): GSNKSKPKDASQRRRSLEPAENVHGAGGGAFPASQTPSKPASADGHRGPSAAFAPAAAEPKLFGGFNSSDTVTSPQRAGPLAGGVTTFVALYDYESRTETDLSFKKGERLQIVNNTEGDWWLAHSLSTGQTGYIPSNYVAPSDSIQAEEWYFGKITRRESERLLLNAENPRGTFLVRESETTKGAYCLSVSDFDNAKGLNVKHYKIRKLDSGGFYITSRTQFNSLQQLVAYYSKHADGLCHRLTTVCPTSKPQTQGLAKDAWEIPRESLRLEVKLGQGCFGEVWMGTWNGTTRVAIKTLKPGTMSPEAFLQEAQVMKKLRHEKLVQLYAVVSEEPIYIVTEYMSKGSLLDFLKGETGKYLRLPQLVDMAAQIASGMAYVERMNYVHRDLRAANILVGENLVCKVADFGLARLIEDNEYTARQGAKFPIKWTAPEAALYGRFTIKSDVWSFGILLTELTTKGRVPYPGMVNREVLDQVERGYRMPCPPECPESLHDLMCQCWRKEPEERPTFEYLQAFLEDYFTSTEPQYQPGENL
Chain of Tyrosine-protein kinase CSK (P41240 2-450 limits assumed): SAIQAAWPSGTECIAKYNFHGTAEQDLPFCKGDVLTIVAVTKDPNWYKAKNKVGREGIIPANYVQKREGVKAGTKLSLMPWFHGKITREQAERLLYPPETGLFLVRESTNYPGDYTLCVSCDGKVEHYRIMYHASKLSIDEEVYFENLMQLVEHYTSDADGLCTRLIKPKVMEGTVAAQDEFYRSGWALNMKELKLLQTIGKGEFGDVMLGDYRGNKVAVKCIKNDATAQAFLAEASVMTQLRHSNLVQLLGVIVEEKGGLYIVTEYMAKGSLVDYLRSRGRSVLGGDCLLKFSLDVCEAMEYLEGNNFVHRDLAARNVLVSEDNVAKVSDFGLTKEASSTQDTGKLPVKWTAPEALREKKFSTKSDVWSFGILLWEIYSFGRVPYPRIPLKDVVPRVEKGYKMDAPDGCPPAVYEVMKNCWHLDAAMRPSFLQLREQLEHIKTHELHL
Chain of Tyrosine-protein kinase HCK (P08631 2-526 limits assumed): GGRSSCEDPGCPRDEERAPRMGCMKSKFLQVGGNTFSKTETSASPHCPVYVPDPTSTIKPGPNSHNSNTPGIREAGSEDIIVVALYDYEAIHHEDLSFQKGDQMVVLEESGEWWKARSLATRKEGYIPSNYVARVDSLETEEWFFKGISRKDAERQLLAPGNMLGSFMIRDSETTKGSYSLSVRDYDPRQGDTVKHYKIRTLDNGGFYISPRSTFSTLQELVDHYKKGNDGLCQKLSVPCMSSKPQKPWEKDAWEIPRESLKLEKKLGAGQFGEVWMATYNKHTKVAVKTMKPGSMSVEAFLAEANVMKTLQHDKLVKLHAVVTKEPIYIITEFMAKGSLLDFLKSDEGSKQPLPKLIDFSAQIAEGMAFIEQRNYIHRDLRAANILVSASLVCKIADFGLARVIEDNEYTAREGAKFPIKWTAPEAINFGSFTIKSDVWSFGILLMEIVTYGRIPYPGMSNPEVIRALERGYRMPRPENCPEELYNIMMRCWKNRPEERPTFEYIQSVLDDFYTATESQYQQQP
Chain of Tyrosine-protein kinase Lyn (P07948 2-512 limits assumed): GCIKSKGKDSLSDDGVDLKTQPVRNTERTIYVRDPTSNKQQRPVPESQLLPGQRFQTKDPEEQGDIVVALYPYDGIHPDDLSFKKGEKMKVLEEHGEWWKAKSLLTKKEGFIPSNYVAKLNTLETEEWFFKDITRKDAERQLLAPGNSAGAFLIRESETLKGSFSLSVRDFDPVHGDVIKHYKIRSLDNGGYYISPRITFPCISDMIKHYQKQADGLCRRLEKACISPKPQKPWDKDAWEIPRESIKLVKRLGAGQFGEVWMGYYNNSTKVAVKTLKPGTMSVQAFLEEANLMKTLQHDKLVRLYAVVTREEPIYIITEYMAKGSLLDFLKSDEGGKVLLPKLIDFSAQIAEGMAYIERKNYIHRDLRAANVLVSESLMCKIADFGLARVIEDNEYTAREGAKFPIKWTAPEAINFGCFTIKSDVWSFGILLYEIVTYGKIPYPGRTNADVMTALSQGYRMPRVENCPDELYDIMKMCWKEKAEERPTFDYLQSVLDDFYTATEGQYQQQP
Chain of Tyrosine-protein kinase Srms (Q9H3Y6 whole entry): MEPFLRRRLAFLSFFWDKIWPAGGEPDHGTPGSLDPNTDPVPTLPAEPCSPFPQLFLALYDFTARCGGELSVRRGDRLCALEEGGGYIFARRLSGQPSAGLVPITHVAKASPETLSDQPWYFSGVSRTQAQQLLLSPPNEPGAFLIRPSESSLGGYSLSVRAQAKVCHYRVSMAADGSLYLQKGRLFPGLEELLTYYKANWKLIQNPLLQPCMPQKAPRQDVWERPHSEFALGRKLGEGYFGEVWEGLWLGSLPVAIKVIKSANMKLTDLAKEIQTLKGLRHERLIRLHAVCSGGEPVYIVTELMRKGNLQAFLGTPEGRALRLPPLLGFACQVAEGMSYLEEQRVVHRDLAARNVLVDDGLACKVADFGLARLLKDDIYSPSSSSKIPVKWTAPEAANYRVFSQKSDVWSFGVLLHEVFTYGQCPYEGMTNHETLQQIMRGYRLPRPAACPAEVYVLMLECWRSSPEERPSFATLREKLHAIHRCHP
Chain of Tyrosine-protein kinase Fgr (P09769 2-529 limits assumed): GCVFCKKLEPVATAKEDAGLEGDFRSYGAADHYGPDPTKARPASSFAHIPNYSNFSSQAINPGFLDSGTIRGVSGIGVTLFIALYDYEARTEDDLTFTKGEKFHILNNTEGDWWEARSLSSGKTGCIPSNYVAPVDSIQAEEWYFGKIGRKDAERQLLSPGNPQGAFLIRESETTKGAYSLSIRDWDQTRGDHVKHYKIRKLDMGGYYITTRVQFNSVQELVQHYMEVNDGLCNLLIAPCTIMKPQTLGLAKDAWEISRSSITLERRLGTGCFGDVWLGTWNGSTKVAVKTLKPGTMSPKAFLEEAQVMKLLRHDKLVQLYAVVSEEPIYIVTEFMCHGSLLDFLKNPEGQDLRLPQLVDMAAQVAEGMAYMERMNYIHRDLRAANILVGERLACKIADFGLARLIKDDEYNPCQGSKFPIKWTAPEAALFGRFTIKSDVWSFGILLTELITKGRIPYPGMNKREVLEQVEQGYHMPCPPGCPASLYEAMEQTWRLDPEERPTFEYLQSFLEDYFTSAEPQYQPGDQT
Chain of Protein-tyrosine kinase 6 (Homo sapiens) (Q13882 whole entry, looked up): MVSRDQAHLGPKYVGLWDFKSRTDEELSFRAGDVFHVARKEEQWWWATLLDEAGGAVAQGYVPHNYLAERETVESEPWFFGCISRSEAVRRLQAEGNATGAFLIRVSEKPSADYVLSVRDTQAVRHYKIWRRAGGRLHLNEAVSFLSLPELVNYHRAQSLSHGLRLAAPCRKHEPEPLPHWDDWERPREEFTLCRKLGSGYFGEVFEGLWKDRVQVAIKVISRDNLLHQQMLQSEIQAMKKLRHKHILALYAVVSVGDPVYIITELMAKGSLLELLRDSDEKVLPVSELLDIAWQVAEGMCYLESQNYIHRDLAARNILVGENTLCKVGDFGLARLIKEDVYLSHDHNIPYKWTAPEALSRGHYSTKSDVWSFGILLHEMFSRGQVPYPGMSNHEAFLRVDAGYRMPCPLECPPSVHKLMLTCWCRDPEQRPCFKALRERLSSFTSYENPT

inhibition [1] [%] | inhibition [2] [%] | inhibition [3] [%] | inhibition [4] [%] | inhibition [5] [%] | inhibition [6] [%] | inhibition [7] [%] | inhibition [8] [%] | inhibition [9] [%] | inhibition [10] [%] | inhibition [11] [%] | inhibition [12] [%] | inhibition [13] [%] | inhibition [14] [%] | inhibition [15] [%] | inhibition [16] [%] | inhibition [17] [%] | Compound
58 | 9 | 68 | 42 | 96 | 52 | 32 | 95 | 99 | 20 | 23 | 90 | 96 | 0 | 82 | 54 | -2 | Cc1ccc(C(=O)Nc2ccc(OC(F)(F)F)cc2)cc1C#Cc1cc(-c2cnn(C)c2)cnc1N
32 | 4 | 1 | 27 | 19 | 39 | 21 | 49 | 50 | 23 | 39 | 98 | 64 | 2 | 94 | 13 | -8 | Cc1ccc(C(=O)Nc2ccc(Cl)cc2Cl)cc1C#Cc1cc(-c2cnn(C)c2)cnc1N

Compound | inhibition [1] [%] | inhibition [2] [%] | inhibition [3] [%] | inhibition [4] [%] | inhibition [5] [%] | inhibition [6] [%] | inhibition [7] [%] | inhibition [8] [%] | inhibition [9] [%] | inhibition [10] [%] | inhibition [11] [%] | inhibition [12] [%] | inhibition [13] [%] | inhibition [14] [%] | inhibition [15] [%] | inhibition [16] [%] | inhibition [17] [%]
Cc1ccc(C(=O)Nc2cc(C(F)(F)F)cc(C(F)(F)F)c2)cc1C#Cc1cc(-c2cnn(C)c2)cnc1N | 22 | 27 | 11 | 26 | 41 | 1 | 1 | 98 | 98 | 89 | 71 | 96 | 97 | 12 | 18 | 86 | 0
